# Biological target: T1, UDP-galactopyranose mutase (Escherichia coli K-12) (UniProt P37747)
# T1 sequence (whole entry): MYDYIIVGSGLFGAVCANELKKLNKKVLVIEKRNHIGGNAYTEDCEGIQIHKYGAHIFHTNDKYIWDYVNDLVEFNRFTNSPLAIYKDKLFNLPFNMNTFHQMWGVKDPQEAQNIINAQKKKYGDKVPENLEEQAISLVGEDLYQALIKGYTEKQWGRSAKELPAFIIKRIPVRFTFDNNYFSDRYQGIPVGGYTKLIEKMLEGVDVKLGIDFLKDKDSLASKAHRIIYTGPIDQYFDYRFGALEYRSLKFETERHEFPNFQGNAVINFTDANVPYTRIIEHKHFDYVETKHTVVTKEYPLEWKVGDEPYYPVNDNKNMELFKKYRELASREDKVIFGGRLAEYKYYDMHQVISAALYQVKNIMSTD
# Assay: Inhibition of Escherichia coli UDP galactopyranose mutase at 25 mM
row,inhibition,SMILES
1,< 50%,CCOC(=O)CC[C@@H]1N[C@@H]([C@H](O)CO)[C@H](O)[C@H]1O
2,< 50%,O=C1CC[C@H]2[C@H](O)[C@@H](O)[C@H]([C@H](O)CO)N12

row,SMILES,inhibition
1,OC[C@@H](O)[C@H]1[C@H](O)[C@@H](O)[C@@H]2CCCN12,< 50%

# Source: ChEMBL document CHEMBL1143760, “Stereoselective synthesis of beta-1-C-substituted 1,4-dideoxy-1,4-imino-D-galactitols and evaluation as UDP-galactopyranose mutase inhibitors” (Bioorg Med Chem, 2007)
